Assays:
[1] = cited from earlier work
AsPC-1 cells = assay: Impact of excessive mannose on transfection efficiency of fucosylated liposomes (flow cytometry); assay type: cell-based; details: excessive amount of mannose
Procedure: Mannose is phosphorylated to mannose-6-phosphate by hexokinase, then converted to fructose-6 phosphate that is used in the glycolysis. However, 90% of the mannose taken into the body is excreted unchanged into urine within 30-60 min, and 99% of the remaining mannose is excreted within 8 hr.

[2] = Hematologic/biochemical analyses and adverse effects during the treatment period; assay type: in vivo, mouse
Procedure: In the preparation of subcutaneous model, AsPC-1 cells (2×10^6 cells) were seeded on the back side of a mouse (4-6 weeks old). Bioluminescence was measured from 0 to 4 days after injection, and the mice were randomly divided into multiple groups before starting the treatment. In vivo optical imaging was performed using Xenogen-IVIS-cooled […] optical system (Xenogen-IVIS). Bound CDD (such as CDDP in fucosylated liposomes) or free CDDP was in a dose of 2 mg/kg for each administration. Injection was performed twice in the first week, then twice in the second and third weeks. All the mice used […], sacrificed on the next day of the final injection prior to the final measurement of bioluminescence.
Samples were collected from mouse orbital venous plexus. In the table, WBC represents white blood cell count, RBC represents red blood cell, count, Hb represents hemoglobin concentration, PLT represents Platelet count, AST represents aspartate aminotransferase concentration, […], Bil represents bilirubin concentration, BS represents blood glucose, Cr represents creatinine concentration.
In pancreatic cancer model mice (AsPC-1), effects of suppression of tumor growth by CDDP, CDDP-encapsulated liposomes (F0), and CDDP-encapsulated liposomes (F50) were compared (FIG. 20). […] Tumor volumes were measured at 4, 8, 11, 15, 18 and 22 days after the transplant.

AsPC-1 = assay: 14C-fucose binding to cells
Procedure: (§1) In a 12-well culture plate, 1×10^5 cells were seeded and cultured overnight, and ^14C-fucose (specific activity: 55 mCi/mmol) diluted with BSA-PBS at a concentration of 0-200 nM was added to the cells and cultured at 4° C. for 1 hr. The cells were washed with cold BSA-PBS, lysed by 1% Triton X100/PBS-0.25% trypsin, and the radioactivity of the ^14C-fucose bound to the cell membrane was measured (FIGS. 2 and 3).
In another experiment, in a 12-well culture plate, 2×10^5 cells were seeded and cultured overnight, 10 nmol of ^14C-fucose (specific activity: 55 mCi/mmol) were added to the cells either singly or together with 1 pmol of fucose, and cultured at 4° C. for 1, 3, or 24 hr. The cells under each condition were washed with cold BSA-PBS, lysed by 1% Triton X100/PBS-0.25% trypsin, and the radioactivity of the ^14C-fucose was measured (FIG. 4).

PANC-1 = assay: 14C-fucose binding to cells; details: 14C-fucose 0-200 nM, 4° C., 1 hr
Procedure: as §1

| Compound | mannose taken into the body excreted unchanged into urine ([1]; within 30-60 min) | remaining mannose excreted ([1]; within 8 hr) | impact on the transfection efficiency of fucosylated liposomes (AsPC-1 cells) | adverse effect ([2]; 1 mg of mannose for a mouse) | adverse effects (as shown in Table 5) ([2]; treatment period) | binding of 14C-fucose in competition with non-labeled fucose (AsPC-1; 4° C. for 1, 3, or 24 hr) | binding of fucose to cells (AsPC-1; 14C-fucose 0-200 nM, 4° C., 1 hr) | affinity of fucose binding (AsPC-1; AsPC-1 compared with PANC-1) | binding of fucose to cells (PANC-1) |
| --- | --- | --- | --- | --- | --- | --- | --- | --- | --- |
| O=C[C@@H](O)[C@@H](O)[C@H](O)[C@H](O)CO [mannose, D-mannose] | 90% | 99% | no apparent impact was observed | no apparent adverse effect was observed | does not have any adverse effects |  |  |  |  |
| C[C@H](O)[C@@H](O)[C@@H](O)[C@H](O)C=O [fucose, L-fucose] |  |  |  |  |  | inhibited by non-labeled fucose | binds to AsPC-1 and PANC-1 via a receptor-like mechanism | affinity is higher in the fucosylated sugar chain high-producing cell line AsPC-1 | binds to AsPC-1 and PANC-1 via a receptor-like mechanism |

Source: patent US9757462B2, “Combined pharmaceutical preparation” (Sapporo Medical University, priority 2010, dated 2017)
